These results are taken from PubChem BioAssay (NCI).

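Dose response: 5 concentrations. Exposure: 48 h. Format: 96-well plates. Endpoint: linear interpolation; highest concentration if not reached. GI50 marks 50% less growth. At the TGI there is no net growth.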

Test systems include KM12 colon; HCT-116 colon; HCT-15 colon; SK-MEL-28 melanoma; MCF7 breast; SN12C renal; SK-MEL-2 melanoma; EKVX NSCLC; U251 CNS; CCRF-CEM leukemia.
What all share (assay): DTP human tumour cell line panel, 48 h

For orientation: GI50 means the concentration at which growth is held to half of that of the control. Broadly, the TGI is the concentration at which net growth stops. As to `Nc1nccc2c1ncn2C1OC(CO)C(O)C1O` (stereo not given), the GI50 was 54.5 µM with KM12 colon; 39.2 µM in the experiment with HCT-116 colon; 75.8 µM in the experiment on HCT-15 colon; more than 100 µM in the experiment with SK-MEL-28 melanoma; 52 µM in the experiment with MCF7 breast; 89.3 µM with SN12C renal. The GI50 with SK-MEL-2 melanoma, in the experiment on EKVX NSCLC, in the experiment on U251 CNS and in the experiment on CCRF-CEM leukemia was more than 100 µM throughout. Moreover, the TGI in the experiment with KM12 colon, in the experiment with HCT-116 colon, with HCT-15 colon, in the experiment with SK-MEL-28 melanoma, in the experiment with MCF7 breast and in the experiment with SN12C renal was more than 100 µM in each case. The concentration for total growth inhibition (TGI) with SK-MEL-2 melanoma, with EKVX NSCLC, in the experiment with U251 CNS and in the experiment on CCRF-CEM leukemia was more than 100 µM in each case.

In the case of `O=c1oc2c3ccc4cnccc4c3[nH]c2c2ccccc12`, the GI50 in the experiment with KM12 colon was 13.1 µM; with HCT-116 colon it was 1.58 µM; in the experiment on HCT-15 colon, 30.7 µM; in the experiment on SK-MEL-28 melanoma, 16.4 µM; with MCF7 breast, 2.24 µM; in the experiment with SN12C renal, 19.3 µM. Further, the GI50 in the experiment on SK-MEL-2 melanoma is 18.8 µM; in the experiment on EKVX NSCLC, 76.5 µM; in the experiment on U251 CNS, 7.57 µM; in the experiment on CCRF-CEM leukemia, 3.94 µM. Further, the TGI in the experiment with KM12 colon was more than 100 µM; in the experiment on HCT-116 colon it was 2.99 µM; in the experiment with HCT-15 colon it was more than 100 µM; in the experiment with SK-MEL-28 melanoma, 32 µM; in the experiment with MCF7 breast, 6.17 µM; in the experiment on SN12C renal it was 85.5 µM. Moreover, the TGI in the experiment with SK-MEL-2 melanoma was 54.8 µM; with EKVX NSCLC, more than 100 µM; in the experiment on U251 CNS, 20.8 µM; in the experiment with CCRF-CEM leukemia, 11.6 µM.

Consider `Clc1cc(-c2ccccc2)nc2ccccc12`, for which the TGI in the experiment with KM12 colon was 77.5 µM; with HCT-116 colon, more than 100 µM; in the experiment with HCT-15 colon, 36.5 µM; with SK-MEL-28 melanoma, more than 100 µM; in the experiment with MCF7 breast, more than 100 µM; in the experiment with SN12C renal, more than 100 µM. Also, the total growth inhibition concentration (TGI) in the experiment with SK-MEL-2 melanoma was 38 µM; in the experiment with EKVX NSCLC it was more than 100 µM; in the experiment with U251 CNS, more than 100 µM; in the experiment on CCRF-CEM leukemia, 54.1 µM.
